Legend:
[1] = target: Serine/threonine-protein kinase 10 (Homo sapiens) (UniProt O94804); test: Inhibition of human LOK at 10 uM after 60 mins by TR-FRET assay; details: values are per cent of control
[2] = target: Protein-tyrosine kinase 2-beta (Homo sapiens) (UniProt Q14289); test: Inhibition of human Pyk2 at 10 uM after 60 mins by TR-FRET assay; values are per cent of control
[3] = target: Serine/threonine-protein kinase 24 (Homo sapiens) (UniProt Q9Y6E0); test: Inhibition of human MST3 at 10 uM after 60 mins by TR-FRET assay; details: values are per cent of control
[4] = target: SRSF protein kinase 3 (Homo sapiens) (UniProt Q9UPE1); test: Inhibition of human MSSK1 at 10 uM after 60 mins by TR-FRET assay; values are per cent of control
[5] = target: Calcium/calmodulin-dependent protein kinase type 1 (Homo sapiens) (UniProt Q14012); test: Inhibition of human CaMK1 at 10 uM after 60 mins by TR-FRET assay; values are per cent of control
[6] = target: Protein kinase C gamma type (Homo sapiens) (UniProt P05129); test: Inhibition of human PKCgamma at 10 uM after 60 mins by TR-FRET assay; values are per cent of control
[7] = system: Tyrosine-protein kinase ABL1 (Homo sapiens), P00519 [M351T]; test: Inhibition of human Abl M351T mutant at 10 uM after 60 mins by TR-FRET assay; values are per cent of control
[8] = target: Serine/threonine-protein kinase ULK2 (Homo sapiens) (UniProt Q8IYT8); test: Inhibition of human ULK2 at 10 uM after 60 mins by TR-FRET assay; values are per cent of control
[9] = target: Protein kinase C alpha type (Homo sapiens) (UniProt P17252); test: Inhibition of human PKCalpha at 10 uM after 60 mins by TR-FRET assay; values are per cent of control
[10] = system: Tyrosine-protein kinase ABL1 (Homo sapiens), P00519 [T315I]; test: Inhibition of human Abl T315I mutant at 10 uM after 60 mins by TR-FRET assay; values are per cent of control
[11] = system: Mast/stem cell growth factor receptor Kit (Homo sapiens), P10721 [V560G]; test: Inhibition of human c-Kit V560G mutant at 10 uM after 60 mins by TR-FRET assay; values are per cent of control
[12] = target: G protein-coupled receptor kinase 6 (Homo sapiens) (UniProt P43250); test: Inhibition of human GRK6 at 10 uM after 60 mins by TR-FRET assay; values are per cent of control
[13] = target: Tyrosine-protein kinase FRK (Homo sapiens) (UniProt P42685); test: Inhibition of human PTK5 at 10 uM after 60 mins by TR-FRET assay; values are per cent of control
[14] = target: Epidermal growth factor receptor (Homo sapiens) (UniProt P00533); test: Inhibition of human EGFR at 10 uM after 60 mins by TR-FRET assay; details: values are per cent of control
[15] = target: SRSF protein kinase 2 (Homo sapiens) (UniProt P78362); test: Inhibition of human SRPK2 at 10 uM after 60 mins by TR-FRET assay; values are per cent of control
[16] = target: Cyclin-dependent kinase 2/cyclin E (Homo sapiens) (UniProt P24864+P24941+O96020); test: Inhibition of human CDK2/cyclinE at 10 uM after 60 mins by TR-FRET assay; values are per cent of control
[17] = target: Serine/threonine-protein kinase PLK1 (Homo sapiens) (UniProt P53350); test: Inhibition of human Plk1 at 10 uM after 60 mins by TR-FRET assay; values are per cent of control
[18] = target: Proto-oncogene tyrosine-protein kinase Src (Homo sapiens) (UniProt P12931); test: Inhibition of human Src (1 to 530) at 10 uM after 60 mins by TR-FRET assay; values are per cent of control
[19] = target: Ephrin type-A receptor 3 (Homo sapiens) (UniProt P29320); test: Inhibition of human EphA3 at 10 uM after 60 mins by TR-FRET assay; values are per cent of control
[20] = target: Tyrosine-protein kinase BTK (Homo sapiens) (UniProt Q06187); test: Inhibition of human BTK at 10 uM after 60 mins by TR-FRET assay; values are per cent of control
[21] = target: Ephrin type-B receptor 1 (Homo sapiens) (UniProt P54762); test: Inhibition of human EphB1 at 10 uM after 60 mins by TR-FRET assay; values are per cent of control
[22] = target: Tyrosine-protein kinase ABL2 (Mus musculus) (UniProt Q4JIM5); test: Inhibition of mouse Arg at 10 uM after 60 mins by TR-FRET assay; values are per cent of control
[23] = system: Tyrosine-protein kinase ABL1 (Homo sapiens), P00519 [H396P]; test: Inhibition of human Abl H396P mutant at 10 uM after 60 mins by TR-FRET assay; values are per cent of control
[24] = target: Serine/threonine-protein kinase DCLK2 (Homo sapiens) (UniProt Q8N568); test: Inhibition of human DCAMKL2 at 10 uM after 60 mins by TR-FRET assay; values are per cent of control
[25] = system: Mitogen-activated protein kinase 14 (Homo sapiens), Q16539 [T106M]; test: Inhibition of human SAPK2a T106M mutant at 10 uM after 60 mins by TR-FRET assay; details: values are per cent of control
[26] = target: Mitogen-activated protein kinase 1 (Homo sapiens, UniProt P28482); test: Inhibition of human MAPK1 at 10 uM after 60 mins by TR-FRET assay; details: values are per cent of control
[27] = target: Activated CDC42 kinase 1 (Homo sapiens) (UniProt Q07912); test: Inhibition of human ACK1 at 10 uM after 60 mins by TR-FRET assay; values are per cent of control
[28] = system: Serine/threonine-protein kinase Chk2 (Homo sapiens), O96017 [I157T]; test: Inhibition of human CHK2 I157T mutant at 10 uM after 60 mins by TR-FRET assay; values are per cent of control

Sequence of Mast/stem cell growth factor receptor Kit (Homo sapiens), P10721 [V560G] (P10721 whole entry V560G): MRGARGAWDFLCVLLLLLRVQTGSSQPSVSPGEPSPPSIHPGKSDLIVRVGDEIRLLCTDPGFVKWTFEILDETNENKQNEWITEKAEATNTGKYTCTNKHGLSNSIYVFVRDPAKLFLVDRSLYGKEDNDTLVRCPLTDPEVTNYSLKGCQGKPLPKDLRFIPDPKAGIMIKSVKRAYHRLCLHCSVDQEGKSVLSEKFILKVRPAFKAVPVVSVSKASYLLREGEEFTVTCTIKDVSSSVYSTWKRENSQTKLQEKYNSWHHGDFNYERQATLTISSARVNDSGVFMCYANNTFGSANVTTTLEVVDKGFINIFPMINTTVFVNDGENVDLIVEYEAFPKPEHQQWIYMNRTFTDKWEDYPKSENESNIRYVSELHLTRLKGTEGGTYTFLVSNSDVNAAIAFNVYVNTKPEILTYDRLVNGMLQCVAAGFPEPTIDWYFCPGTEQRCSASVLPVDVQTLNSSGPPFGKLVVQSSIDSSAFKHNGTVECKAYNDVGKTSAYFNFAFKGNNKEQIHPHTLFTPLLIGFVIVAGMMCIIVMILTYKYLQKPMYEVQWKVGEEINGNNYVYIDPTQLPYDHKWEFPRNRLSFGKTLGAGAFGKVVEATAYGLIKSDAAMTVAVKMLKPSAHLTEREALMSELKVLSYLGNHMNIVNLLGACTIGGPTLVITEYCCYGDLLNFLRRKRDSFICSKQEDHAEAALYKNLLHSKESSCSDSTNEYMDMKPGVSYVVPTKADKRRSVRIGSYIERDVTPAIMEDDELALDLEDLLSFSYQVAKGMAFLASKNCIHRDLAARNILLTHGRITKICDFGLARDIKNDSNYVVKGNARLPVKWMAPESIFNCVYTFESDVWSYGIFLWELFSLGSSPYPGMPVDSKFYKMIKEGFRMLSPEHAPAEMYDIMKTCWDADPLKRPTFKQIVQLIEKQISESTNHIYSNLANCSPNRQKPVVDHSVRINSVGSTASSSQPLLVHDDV
Sequence of Calcium/calmodulin-dependent protein kinase type 1 (Homo sapiens) (Q14012 whole entry, looked up): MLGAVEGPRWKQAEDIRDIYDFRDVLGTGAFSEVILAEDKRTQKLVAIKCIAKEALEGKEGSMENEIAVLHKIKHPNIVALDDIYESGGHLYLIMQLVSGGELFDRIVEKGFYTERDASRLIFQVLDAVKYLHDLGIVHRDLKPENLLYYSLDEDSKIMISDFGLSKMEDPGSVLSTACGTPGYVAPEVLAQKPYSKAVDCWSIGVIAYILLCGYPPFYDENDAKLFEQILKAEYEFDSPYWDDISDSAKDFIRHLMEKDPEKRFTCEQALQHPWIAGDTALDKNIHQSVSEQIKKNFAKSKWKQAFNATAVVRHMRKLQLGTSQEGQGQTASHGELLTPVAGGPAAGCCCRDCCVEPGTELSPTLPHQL
Sequence of Serine/threonine-protein kinase DCLK2 (Homo sapiens) (Q8N568 whole entry): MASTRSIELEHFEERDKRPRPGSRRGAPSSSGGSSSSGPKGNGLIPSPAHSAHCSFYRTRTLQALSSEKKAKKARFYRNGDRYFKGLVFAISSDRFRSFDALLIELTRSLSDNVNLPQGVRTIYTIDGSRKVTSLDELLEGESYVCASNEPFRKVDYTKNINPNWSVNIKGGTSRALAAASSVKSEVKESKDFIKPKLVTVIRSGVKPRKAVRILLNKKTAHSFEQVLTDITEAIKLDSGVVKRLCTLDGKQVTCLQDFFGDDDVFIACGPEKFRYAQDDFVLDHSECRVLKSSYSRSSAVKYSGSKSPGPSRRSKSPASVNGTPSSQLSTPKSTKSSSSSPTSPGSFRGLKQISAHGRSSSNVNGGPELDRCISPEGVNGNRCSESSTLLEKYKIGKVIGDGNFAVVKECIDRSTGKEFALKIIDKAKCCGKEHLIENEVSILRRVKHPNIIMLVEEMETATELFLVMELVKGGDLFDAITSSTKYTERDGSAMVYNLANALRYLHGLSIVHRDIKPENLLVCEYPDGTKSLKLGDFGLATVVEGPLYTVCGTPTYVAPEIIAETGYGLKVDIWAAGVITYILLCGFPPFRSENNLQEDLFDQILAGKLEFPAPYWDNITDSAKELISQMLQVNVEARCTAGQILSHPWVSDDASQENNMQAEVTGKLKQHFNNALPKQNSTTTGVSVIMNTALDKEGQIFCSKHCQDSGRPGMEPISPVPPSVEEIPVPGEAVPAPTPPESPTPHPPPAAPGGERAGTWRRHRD
Sequence of Protein-tyrosine kinase 2-beta (Homo sapiens) (Q14289 whole entry, looked up): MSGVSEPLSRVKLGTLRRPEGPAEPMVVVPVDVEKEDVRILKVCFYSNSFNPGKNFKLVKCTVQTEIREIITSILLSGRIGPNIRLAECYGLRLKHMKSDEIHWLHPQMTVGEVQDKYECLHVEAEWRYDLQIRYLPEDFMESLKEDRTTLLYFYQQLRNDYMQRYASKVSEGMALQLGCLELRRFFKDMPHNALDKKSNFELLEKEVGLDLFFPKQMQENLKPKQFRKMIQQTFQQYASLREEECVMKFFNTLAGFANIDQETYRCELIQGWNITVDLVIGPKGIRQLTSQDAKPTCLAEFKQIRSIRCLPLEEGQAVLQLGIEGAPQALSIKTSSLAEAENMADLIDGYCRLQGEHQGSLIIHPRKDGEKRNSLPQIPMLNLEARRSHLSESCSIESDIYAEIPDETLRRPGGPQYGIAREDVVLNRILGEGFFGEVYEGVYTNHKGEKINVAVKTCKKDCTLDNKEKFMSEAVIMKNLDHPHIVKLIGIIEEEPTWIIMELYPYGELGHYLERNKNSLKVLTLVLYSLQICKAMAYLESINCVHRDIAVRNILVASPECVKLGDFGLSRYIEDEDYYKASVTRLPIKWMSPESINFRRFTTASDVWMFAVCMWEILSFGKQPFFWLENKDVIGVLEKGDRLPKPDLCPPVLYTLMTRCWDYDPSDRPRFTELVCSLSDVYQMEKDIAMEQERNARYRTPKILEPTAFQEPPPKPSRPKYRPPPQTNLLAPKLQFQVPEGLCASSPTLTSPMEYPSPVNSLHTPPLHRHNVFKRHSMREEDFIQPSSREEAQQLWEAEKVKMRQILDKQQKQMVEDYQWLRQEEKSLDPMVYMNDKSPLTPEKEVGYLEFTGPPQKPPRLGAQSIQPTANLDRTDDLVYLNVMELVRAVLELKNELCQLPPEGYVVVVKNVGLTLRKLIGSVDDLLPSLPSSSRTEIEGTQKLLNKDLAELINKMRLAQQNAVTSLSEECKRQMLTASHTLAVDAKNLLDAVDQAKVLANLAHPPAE
Sequence of Tyrosine-protein kinase FRK (Homo sapiens) (P42685 whole entry): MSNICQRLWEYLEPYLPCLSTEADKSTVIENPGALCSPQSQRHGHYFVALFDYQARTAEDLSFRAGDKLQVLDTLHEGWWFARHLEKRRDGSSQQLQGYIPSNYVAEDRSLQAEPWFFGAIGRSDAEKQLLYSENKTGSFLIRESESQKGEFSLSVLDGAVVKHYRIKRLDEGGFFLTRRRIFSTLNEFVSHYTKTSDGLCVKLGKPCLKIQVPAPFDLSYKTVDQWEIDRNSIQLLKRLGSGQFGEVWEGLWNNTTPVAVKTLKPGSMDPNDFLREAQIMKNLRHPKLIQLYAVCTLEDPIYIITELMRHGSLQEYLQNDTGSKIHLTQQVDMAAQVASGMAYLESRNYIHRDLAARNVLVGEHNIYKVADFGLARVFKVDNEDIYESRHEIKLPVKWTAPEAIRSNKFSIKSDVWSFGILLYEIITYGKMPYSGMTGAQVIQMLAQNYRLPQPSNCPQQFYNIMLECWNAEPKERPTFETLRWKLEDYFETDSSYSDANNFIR

- residual activity [1]: 89%
- residual activity [2]: 98%
- residual activity [3]: 111%
- residual activity [4]: 121%
- residual activity [5]: 105%
- residual activity [6]: 102%
- residual activity [7]: 109%
- residual activity [8]: 103%
- residual activity [9]: 93%
- residual activity [10]: 110%
- residual activity [11]: 102%
- residual activity [12]: 108%
- residual activity [13]: 98%
- residual activity [14]: 90%
- residual activity [15]: 110%
- residual activity [16]: 108%
- residual activity [17]: 90%
- residual activity [18]: 106%
- residual activity [19]: 90%
- residual activity [20]: 118%
- residual activity [21]: 79%
- residual activity [22]: 101%
- residual activity [23]: 107%
- residual activity [24]: 112%
- residual activity [25]: 104%
- residual activity [26]: 109%
- residual activity [27]: 103%
- residual activity [28]: 108%
SMILES: S=c1[nH]nc(-c2ccncc2)n1-c1ccc2ccccc2c1

From ChEMBL document CHEMBL1641539 (Bioorg Med Chem Lett, 2011)
